Test system: individuals over 70 years old with a peripheral venous insufficiency
Assay: Serum CRP levels in individuals over 70 years old with osteoarticular problems
Type: in vivo, human
Details: for CRP level: T2 (8 days)
Method: CRP levels in serum samples of individuals over 70 years old, chronically affected by osteoarticular problems, with or without pain, was also measured. CRP levels were measured within a group of 30 people, with a peripheral venous insufficiency. The subjects (23 females, 7 males) underwent sclerotherapy according to the invention. Then, CRP levels were measured at time 0 (beginning of treatment) at T1 (24 hours after treatment) and at T2 (8 days after treatment).

In the case of Polidocanol [diluted polidocanol], the “CRP levels vs time 0” value (T1 (24 hours after treatment), 30 people over 70) is reported as “did not show any variation”, the “individuals showing a notable reduction of CRP levels” value (T2 (8 days after treatment), 27 out of 30) is reported as 90% and the CRP level (case with starting CRP level 15 mg/l) is reported as 10 mg/L. The CRP level (case with starting CRP level 18 mg/l) was 9 mg/L and the CRP level (case with starting CRP level 27 mg/l) was 16 mg/L.

From patent US12016831B2, “Polidocanol for use as immunomodulating agent” (priority 2018, dated 2024)
